For assay [1], the target named is T1, CBM98 (BoGH13ASus CBM98) (Bacteroides ovatus, UniProt A0ABU3ISA0).
T1 sequence (A0ABU3ISA0 22-143): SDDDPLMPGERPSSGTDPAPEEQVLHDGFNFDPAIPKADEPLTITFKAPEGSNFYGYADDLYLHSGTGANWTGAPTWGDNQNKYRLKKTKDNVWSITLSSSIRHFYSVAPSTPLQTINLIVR
The experiment in a line: isothermal titration calorimetry. The format is binding. To be noted: read-out: Kd (μM) ± SD; 25 °C, 20 mM HEPES pH 7.0, 100 mM NaCl.

The target in assay [2] is T2, CBM98-CBM48 (BoGH13ASus CBM98-CBM48) (Bacteroides ovatus, UniProt A0ABU3ISA0).
T2 sequence (A0ABU3ISA0 22-296): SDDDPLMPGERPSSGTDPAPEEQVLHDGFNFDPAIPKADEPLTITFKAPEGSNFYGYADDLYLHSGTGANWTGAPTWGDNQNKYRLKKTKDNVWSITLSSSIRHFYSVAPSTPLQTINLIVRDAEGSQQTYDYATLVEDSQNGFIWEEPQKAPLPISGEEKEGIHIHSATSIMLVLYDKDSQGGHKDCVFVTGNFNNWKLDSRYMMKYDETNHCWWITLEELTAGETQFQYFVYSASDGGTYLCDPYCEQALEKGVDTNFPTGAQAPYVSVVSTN
The experiment in a line: isothermal titration calorimetry. The format is binding. To be noted: read-out: Kd (μM) ± SD, 25 °C, 20 mM HEPES pH 7.0, 100 mM NaCl.

Where [3] appears, read: standard-volume instrument, 25 μM protein.

Read-outs that look alike come from different tables or passages of the source.

`OC[C@H]1O[C@@H]2O[C@H]3[C@H](O)[C@@H](O)[C@@H](O[C@H]4[C@H](O)[C@@H](O)[C@@H](O[C@H]5[C@H](O)[C@@H](O)[C@@H](O[C@H]6[C@H](O)[C@@H](O)[C@@H](O[C@H]7[C@H](O)[C@@H](O)[C@@H](O[C@H]1[C@H](O)[C@H]2O)O[C@@H]7CO)O[C@@H]6CO)O[C@@H]5CO)O[C@@H]4CO)O[C@@H]3CO` [αCD, α-cyclodextrin]: the results for the dissociation constant Kd in assay [1] and in assay [2] (setting [3]) were 42 ± 13 µM and 43 ± 18 µM, respectively.

With `OC[C@H]1O[C@H](O[C@H]2[C@H](O)[C@@H](O)[C@@H](O[C@H]3[C@H](O)[C@@H](O)[C@@H](O[C@H]4[C@H](O)[C@@H](O)[C@@H](O[C@H]5[C@H](O)[C@@H](O)[C@@H](O[C@H]6[C@H](O)[C@@H](O)[C@@H](O[C@H]7[C@H](O)[C@@H](O)C(O)O[C@@H]7CO)O[C@@H]6CO)O[C@@H]5CO)O[C@@H]4CO)O[C@@H]3CO)O[C@@H]2CO)[C@H](O)[C@@H](O)[C@@H]1O` (stereo partly drawn) [G7, maltoheptaose], the equilibrium dissociation constant (Kd) in assay [1] was 32 ± 9.8 µM; in assay [2], 33 ± 9.9 µM.

Take `OC[C@H]1O[C@@H]2O[C@H]3[C@H](O)[C@@H](O)[C@@H](O[C@H]4[C@H](O)[C@@H](O)[C@@H](O[C@H]5[C@H](O)[C@@H](O)[C@@H](O[C@H]6[C@H](O)[C@@H](O)[C@@H](O[C@H]7[C@H](O)[C@@H](O)[C@@H](O[C@H]8[C@H](O)[C@@H](O)[C@@H](O[C@H]1[C@H](O)[C@H]2O)O[C@@H]8CO)O[C@@H]7CO)O[C@@H]6CO)O[C@@H]5CO)O[C@@H]4CO)O[C@@H]3CO` [βCD, β-cyclodextrin]: the results for the Kd in assay [1] and in assay [2] (setting [3]) were 26 ± 3.8 µM and 21 ± 1.4 µM, respectively.

(Values after PMC10540511 (Cellular and molecular life sciences : CMLS, 2023).)
